Entries after “also recorded” stand apart in the source; their conditions may differ. Like-named read-outs stand apart in the source and are kept apart here.
Assays:
[1] = type: physicochemical; conditions: 1 mg/mL in acetonitrile, −80 °C
[2] = design: method as in PMID 22915796, PMID 27027316; conditions: aldehyde bisulfite prodrug; cited from earlier work
cathepsin L = conditions: selective over cathepsins B and K; cited from earlier work
[3] = Crossover pharmacokinetic study in rats after IV or oral MPI8 sulfonate; type: in vivo, Sprague-Dawley rats; conditions: for AUC(0-t): read-out: AUC0−10 h; for Cmax: po
Excerpt: The validated assay was applied in a crossover pharmacokinetic study to evaluate the oral bioavailability of MPI8 sulfonate in rats. The animal study protocol (#9132) was reviewed and approved by the Institutional Animal Care and Use Committee (IACUC) at Texas Southern University on 11 July 2020.
Male adult Sprague-Dawley rats were purchased from Envigo RMS (Indianapolis, IN, USA). Rats were cannulated via jugular vein a day before dosing. Three rats were intravenously administered a single dose of 5 mg/kg MPI8 sulfonate (5 mg/mL in 5% dextrose) via the jugular vein. Serial blood samples (about 0.1 mL) were collected from the cannulated jugular vein into heparin-coating tubes before dosing and at 2 min, 5 min, 15 min, 0.5 h, 1 h, 2 h, 4 h, 6 h, 8 h, 10 h, and 24 h time points after administration. After two weeks of washout period, the three rats were fasted overnight and orally administered a single dose of 50 mg/kg MPI8 sulfonate (20 mg/mL in water). Blood samples were collected before dosing and at 15 min, 0.5 h, 1 h, 1.5 h, 2 h, 2.5 h, 3 h, 4 h, 6 h, 8 h, 10 h, and 24 h time points after administration. Briefly, 12 time-point plasma samples from rats dosed intravenously and 13 time-point plasma samples from rats dosed orally were collected. Plasma samples were separated immediately by centrifugation of the blood samples at 13,000 rpm for 3 min and kept at −80 °C until analysis. The samples were processed following the procedure in Section 3.3.3. Three replicates for each time point were analyzed and the results were reported as mean values with standard deviation (SD) for each time point.
The pharmacokinetic parameters for each rat were estimated using Phoenix WinNonlin v8.3 software (Pharsight Corporation, Mountain View, CA, USA). Non-compartmental analysis was used to determine the pharmacokinetic parameters of MPI8. The pharmacokinetic parameters, including the area under the plasma concentration–time curve during the period of measurable observation (AUC0−10h), the area under the plasma concentration–time curve extrapolated to infinity (AUC0−inf), the apparent volume of distribution (Vz/F), the apparent clearance (CL/F), the total body mean residence time (MRT), and the terminal elimination half-life (T1/2) were estimated. The oral bioavailability (F) was calculated according to the following equation:(1) F=AUCoral×Dosei.v./AUCi.v.×Doseoral

[4] = system: SARS-CoV-2 (USA-WA1/2020); design: method as in PMID 35229034; conditions: SARS-CoV-2 (USA-WA1/2020) in Vero E6 cells; read-out: EC50 to neutralize SARS-CoV-2; cited from earlier work
[5] = Stability of MPI8 in rat plasma (QC samples, LC-MS/MS); type: in vitro ADME
Description: The quantification of MPI8 concentrations in extracted plasma samples was performed on a 6500+ Triple Quad LC-MS/MS System using a Kinetex HILIC Column (unbonded silica stationary phase, 2.6 µm, 50 × 2.1 mm, 100 Å, Phenomenex, CA, USA). The optimized method used binary gradient mobile phases with water (containing 1 mM ammonium acetate) as mobile phase A and acetonitrile as mobile phase B. A flow rate of 0.4 mL/min was used with an injection volume of 2 μL. The autosampler and oven temperature were set at 10 °C and 30 °C, respectively. The running time was 5 min. In this study, the HILIC column, widely considered as an NP column, was eluted in a typical RP time program of the gradient: Phase B was initially kept at 5% for 0.2 min, increased from 5% to 90% in the next 1.3 min, then held at 90% for 1 min, and then decreased to 5% in 1.5 min, and kept stably at 5% for 1 min. The unique behavior of MPI8 on a HILIC column, which resembles an RP characteristic, was most likely due to its hydrophobic nature.
Eighteen microliters of blank rat plasma, 2 μL of working solution (10×) (or 20 μL of rat plasma samples from pharmacokinetic studies), and 180 μL of acetonitrile (containing 5 ng/mL of IS) were vortex-mixed for 2 min and then centrifuged at 14,000 rpm for 20 min at 4 °C. Eighty μL of the supernatant were transferred to a sample vial for LC-MS/MS analysis. All samples were kept on ice during sample processing.
The stability of MPI8 was examined by keeping four replicates of the QC samples at room temperature and on ice for 4 h, in the auto-sampler tray at 10 °C for 24 h, and in a freezer at −80 °C for 3 weeks; the freeze-thaw stability was obtained over three freeze-thaw cycles, by thawing at 4 °C for 2–3 h and then refreezing at −80 °C for 12–24 h. The concentration of MPI8 after each storage period was determined using the calibration curve analyzed on the same day. The accuracy was expressed by RE%, and the precision was CV%.

[6] = male, Sprague-Dawley, in vivo, iv, rat, i.v. 5 mg/kg MPI8 sulfonate, NCA
[7] = male, Sprague-Dawley, in vivo, rat, oral 50 mg/kg MPI8 sulfonate, NCA
[8] = rat, i.v. 5 mg/kg MPI8 sulfonate, NCA
[9] = Auto-sampler (10 °C 24 h), nominal 1.5 ng/mL
[10] = Auto-sampler (10 °C 24 h), nominal 25 ng/mL
[11] = Auto-sampler (10 °C 24 h), nominal 400 ng/mL
[12] = Bench top (4 h, 4 °C), nominal 1.5 ng/mL
[13] = Bench top (4 h, 4 °C), nominal 25 ng/mL
[14] = Bench top (4 h, 4 °C), nominal 400 ng/mL
[15] = Freeze and thaw (−80 °C to 4 °C, 3 cycles), nominal 1.5 ng/mL
[16] = Freeze and thaw (−80 °C to 4 °C, 3 cycles), nominal 25 ng/mL
[17] = Freeze and thaw (−80 °C to 4 °C, 3 cycles), nominal 400 ng/mL
[18] = Long-term (−80 °C, 20 days), nominal 1.5 ng/mL
[19] = Long-term (−80 °C, 20 days), nominal 400 ng/mL

Cc1cc(=O)n(-c2ccccc2)n1C [AP, antipyrine, reference compound]
Stock solution stable for [1]: 12 months

CC(C)C[C@H](NC(=O)OCc1ccccc1)C(=O)N[C@@H](C[C@@H]1CCNC1=O)C(O)S(=O)(=O)[O-].[Na+] (stereo partly drawn) [GC376]
Conversion into active aldehyde form [2]: quickly convert

CC(OC(C)(C)C)C(NC(=O)OCc1ccccc1)C(=O)NC(CC1CCCCC1)C(=O)NC(C=O)CC1CCNC1=O (stereo not drawn) [MPI8]
Potency toward cathepsin L (cathepsin L): potent
C0 at 2 min ([3]; male, Sprague-Dawley, in vivo, iv, rat, i.v. 5 mg/kg MPI8 sulfonate, 2 min after dosing, read-out: Mean initial plasma concentration): 4480 ng/mL
concentration at 10 h ([3]; male, Sprague-Dawley, in vivo, iv, rat, i.v. 5 mg/kg MPI8 sulfonate, 10 h post-dose, read-out: Mean plasma concentration): 1.24 ng/mL
AUC(0-inf) [3, 6]: 618 ± 15.7 ng·h/mL
MRT [3, 6]: 0.54 ± 0.1 h
half-life [3, 6]: 2.75 ± 0.53 h
AUC(0-t) [3, 6]: 613 ± 15.4 ng·h/mL
AUC(0-inf) [3, 7]: 1180 ± 288 ng·h/mL
MRT [3, 7]: 2.52 ± 0.16 h
half-life [3, 7]: 1.22 ± 0.46 h
Tmax ([3]; male, Sprague-Dawley, in vivo, rat, oral 50 mg/kg MPI8 sulfonate, NCA, no unit in table (h)): 2.17 ± 0.58 h
AUC(0-t) [3, 7]: 1180 ± 290 ng·h/mL
CL/F ([3]; male, Sprague-Dawley, in vivo, rat, oral 50 mg/kg MPI8 sulfonate, NCA, read-out: CL/F (converted)): 733 mL/min/kg
Vd/F ([3]; male, Sprague-Dawley, in vivo, rat, oral 50 mg/kg MPI8 sulfonate, NCA, read-out: Vz/F): 81.6 L/kg
bioavailability ([3]; male, Sprague-Dawley, rat, in vivo, 50 mg/kg, rat, oral 50 mg/kg vs i.v. 5 mg/kg MPI8 sulfonate, read-out: F (oral bioavailability)): 15.8%
Cmax ([3]; male, Sprague-Dawley, rat, in vivo, 50 mg/kg, oral 50 mg/kg MPI8 sulfonate): 601 ng/mL
Cmax ([3]; male, Sprague-Dawley, rat, in vivo, 50 mg/kg, oral 50 mg/kg MPI8 sulfonate, NCA, no unit in table (ng/mL)): 601 ± 75 ng/mL
CL/F [3, 8]: 110.116 ± 3.5637 mL/min/kg
Vz/F [3, 8]: 26,324.66 ± 5882.81 ml/kg
Plasma concentration ([3]; rat, i.v. 5 mg/kg MPI8 sulfonate, by 24 h): undetectable
EC50 [4]: 30 nM
Stock solution stable for [1]: 3 months
Calculated concentration (Mean ± SD) [5, 9]: 1.44 ± 0.11 ng/mL
Stability accuracy (RE%) [5, 9]: −4.33%
Calculated concentration (Mean ± SD) [5, 10]: 26.8 ± 1.91 ng/mL
Stability accuracy (RE%) [5, 10]: 7.20%
Calculated concentration (Mean ± SD) [5, 11]: 458.5 ± 47.18 ng/mL
Stability accuracy (RE%) [5, 11]: 14.63%
Calculated concentration (Mean ± SD) [5, 12]: 1.35 ± 0.11 ng/mL
Stability accuracy (RE%) [5, 12]: −9.87%
Calculated concentration (Mean ± SD) [5, 13]: 21.3 ± 0.12 ng/mL
Stability accuracy (RE%) [5, 13]: −14.80%
Calculated concentration (Mean ± SD) [5, 14]: 340.25 ± 14.03 ng/mL
Stability accuracy (RE%) [5, 14]: −14.94%
Calculated concentration (Mean ± SD) [5, 15]: 1.33 ± 0.08 ng/mL
Stability accuracy (RE%) [5, 15]: −11.17%
Calculated concentration (Mean ± SD) [5, 16]: 23.5 ± 1.41 ng/mL
Stability accuracy (RE%) [5, 16]: −6.00%
Calculated concentration (Mean ± SD) [5, 17]: 362.2 ± 11.56 ng/mL
Stability accuracy (RE%) [5, 17]: −9.45%
Calculated concentration (Mean ± SD) [5, 18]: 1.44 ± 0.19 ng/mL
Stability accuracy (RE%) [5, 18]: −4.22%
Calculated concentration (Mean ± SD) ([5]; Long-term (−80 °C, 20 days), nominal 25 ng/mL): 25.18 ± 1.37 ng/mL
Calculated concentration (Mean ± SD) [5, 19]: 399 ± 17.61 ng/mL
Stability accuracy (RE%) [5, 19]: −0.25%
Degradation under the experimental conditions ([5]; conditions of Table 4): No significant degradation
Stability at room temperature in rat plasma ([5]; room temperature): not stable
Bench top stability accuracy (RE%) ([5]; room temperature, 50 ng/mL, n = 4): −27.6%

CC(OC(C)(C)C)C(NC(=O)OCc1ccccc1)C(=O)NC(CC1CCCCC1)C(=O)NC(CC1CCNC1=O)C(O)S(=O)(=O)O (stereo not drawn) [MPI8 sulfonate]
Conversion of prodrug to MPI8 in vivo ([3]; in vivo, rats): rapid conversion; also recorded: rapidly converts
